For this test, the system named is CD8+ T cells of healthy HLA-A*24+ donors. The experiment in a line: In vitro immunogenicity: priming of CD8+ T cells with aAPCs loaded with HLA-A*24/peptide complexes and anti-CD28, multimer staining. Type of test: cell-based, human. To be noted: for Wells positive [%]: in vitro immunogenicity, HLA-A*24 peptides of Table 12B; for wells: in vitro immunogenicity of HLA class I peptides, share of positive wells, peptides of Table 3 (HLA-A*24 binding). The procedure:
CD8+ T cells were primed using artificial APCs coated with anti-CD28 mAb and HLA-A*24 in complex with SEQ ID NO: 99 peptide (FIG. 5A, left panel), SEQ ID NO: 119 peptide (FIG. 5B, left panel), SEQ ID NO: 142 peptide (FIG. 5C, left panel) and SEQ ID NO: 174 peptide (FIG. 5D, left panel), respectively. After three cycles of stimulation, the detection of peptide-reactive cells was performed by 2D multimer staining with A*24/SEQ ID NO: 99 (A), A*24/SEQ ID NO: 119 (B), A*24/SEQ ID NO: 142 (C) or A*24/SEQ ID NO: 174 (D). Right panels (FIGS. 5A, 5B, 5C and 5D) show control staining of cells stimulated with irrelevant A*24/peptide complexes. Viable singlet cells were gated for CD8+ lymphocytes. Boolean gates helped excluding false-positive events detected with multimers specific for different peptides. Frequencies of specific multimer+ cells among CD8+ lymphocytes are indicated.
In order to obtain information regarding the immunogenicity of the TUMAPs of the present invention, the inventors performed investigations using an in vitro T-cell priming assay based on repeated stimulations of CD8+ T cells with artificial antigen presenting cells (aAPCs) loaded with peptide/MHC complexes and anti-CD28 antibody.
PBMCs and isolated CD8+ lymphocytes were incubated in T-cell medium (TCM) until use consisting of RPMI-Glutamax (Invitrogen, Karlsruhe, Germany) supplemented with 10% heat inactivated human AB serum (PAN-Biotech, Aidenbach, Germany), 100 U/ml Penicillin/100 μg/ml Streptomycin (Cambrex, Cologne, Germany), 1 mM sodium pyruvate (CC Pro, Oberdorla, Germany), 20 μg/ml Gentamycin (Cambrex). 2.5 ng/ml IL-7 (PromoCell, Heidelberg, Germany) and 10 U/ml IL-2 (Novartis Pharma, Nurnberg, Germany) were also added to the TCM at this step.
Generation of pMHC/anti-CD28 coated beads, T-cell stimulations and readout was performed in a highly defined in vitro system using four different pMHC molecules per stimulation condition and 8 different pMHC molecules per readout condition.
The purified co-stimulatory mouse IgG2a anti human CD28 Ab 9.3 (Jung et al., 1987) was chemically biotinylated using Sulfo-N-hydroxysuccinimidobiotin as recommended by the manufacturer (Perbio, Bonn, Germany). Beads used were 5.6 μm diameter streptavidin coated polystyrene particles (Bangs Laboratories, Illinois, USA).
800.000 beads/200 μl were coated in 96-well plates in the presence of 4×12.5 ng different biotin-pMHC, washed and 600 ng biotin anti-CD28 were added subsequently in a volume of 200 μl. Stimulations were initiated in 96-well plates by co-incubating […] CD8+ T cells with 2×10^5 washed coated beads in 200 μl TCM supplemented with 5 ng/ml IL-12 (PromoCell) for 3 days at 37° C. Half of the medium was then exchanged by fresh TCM supplemented with 80 U/ml IL-2 and incubating was continued for 4 days at 37° C. This stimulation cycle was performed for a total of three times. For the pMHC multimer readout using 8 different pMHC molecules per condition, a two-dimensional combinatorial coding approach was used as previously described (Andersen et al., 2012) with minor modifications encompassing coupling to 5 different fluorochromes. Finally, multimeric analyses were performed by staining the cells with Live/dead near IR dye (Invitrogen, Karlsruhe, Germany), CD8-FITC antibody clone SKI (BD, Heidelberg, Germany) and fluorescent pMHC multimers. For analysis, a BD LSRII SORP cytometer equipped with appropriate lasers and filters was used. Peptide specific cells were calculated as percentage of total CD8+ cells. Evaluation of multimeric analysis was done using the FlowJo software (Tree Star, Oreg., USA). In vitro priming of specific multimer+ CD8+ lymphocytes was detected by comparing to negative control stimulations.

For “181 (VYPPYLNYL; listed as Homo sapiens) [compound 181]”, the “Wells positive [%]” value is listed as “++++ (>= 70 % = ++++)”.

Consider “190 (LYSELTETL; listed as Homo sapiens) [compound 190]”, for which the “Wells positive [%]” value is listed as “++++ (>= 70 % = ++++)”.

Turning to “119 (VYRVYVTTF; listed as Homo sapiens) [compound 119]”, the “Wells positive [%]” value is recorded as “+++ (50%-69% = +++)”.

Consider “171 (NYEDHFPLL; listed as Homo sapiens) [compound 171]”, for which the “Wells positive [%]” value is recorded as “++ (20%-49% = ++)”.

With “164 (HYVPATKVF; listed as Homo sapiens) [compound 164]”, the “Wells positive [%]” value is listed as “+ (<20% = +)”.

In the case of “353 (TYGKIDLGF; listed as Homo sapiens) [compound 353]”, the “Wells positive [%]” value is “+ (<20% = +)”.

As to “363 (SYAELGTTI; listed as Homo sapiens) [compound 363]”, the “Wells positive [%]” value is “+ (<20% = +)”.

Take “167 (RYGFYYVEF; listed as Homo sapiens) [compound 167]”: the “Wells positive [%]” value is “++++ (>= 70 % = ++++)”.

For “162 (KYTSYILAF; listed as Homo sapiens) [compound 162]”, the “Wells positive [%]” value is “+ (<20% = +)”.

For the substance “360 (VFSPDGHLF; listed as Homo sapiens) [compound 360]”, the “Wells positive [%]” value was “++ (20%-49% = ++)”.

“157 (DYIPASGFALF; listed as Homo sapiens) [compound 157]”: the “Wells positive [%]” value is recorded as “+ (<20% = +)”.

“407 (VYGIRLEHF; listed as Homo sapiens) [compound 407]”: the wells entry is “+++ (50%-69% = +++)”.

Regarding “174 (VYEKNGYIYF; listed as Homo sapiens) [compound 174]”, the “Wells positive [%]” value was “++++ (>= 70 % = ++++)”.

In the case of “111 (VYVQILQKL; listed as Homo sapiens) [compound 111]”, the “Wells positive [%]” value was “+ (<20% = +)”.

As for “414 (MYPYIYHVL; listed as Homo sapiens) [compound 414]”, the wells result was “++ (20%-49% = ++)”.

For “105 (IYNETITDLL; listed as Homo sapiens) [compound 105]”, the “Wells positive [%]” value was “+ (<20% = +)”.

“158 (IYEETRGVLKVF; listed as Homo sapiens) [compound 158]”: the “Wells positive [%]” value is listed as “+ (<20% = +)”.

Take “345 (EYNSDLHQFF; listed as Homo sapiens) [compound 345]”: the “Wells positive [%]” value is reported as “++ (20%-49% = ++)”.

Consider “277 (FYTFPFQQL; listed as Homo sapiens) [compound 277]”, for which the “Wells positive [%]” value was “+++ (50%-69% = +++)”.

With “351 (IFHEVPLKF; listed as Homo sapiens) [compound 351]”, the “Wells positive [%]” value is on record as “++ (20%-49% = ++)”.

Turning to “106 (IYNETVRDLL; listed as Homo sapiens) [compound 106]”, the “Wells positive [%]” value is on record as “+ (<20% = +)”.

Consider “175 (LYSPVPFTL; listed as Homo sapiens) [compound 175]”, for which the “Wells positive [%]” value is recorded as “+ (<20% = +)”.

Consider “98 (VFPRLHNVLF; listed as Homo sapiens) [compound 98]”, for which the “Wells positive [%]” value is reported as “+ (<20% = +)”.

“367 (LYQDHMQYI; listed as Homo sapiens) [compound 367]”: the “Wells positive [%]” value is recorded as “++ (20%-49% = ++)”.

As for “358 (YYSEVPVKL; listed as Homo sapiens) [compound 358]”, the “Wells positive [%]” value was “++++ (>= 70 % = ++++)”.

In the case of “122 (EYQARIPEF; listed as Homo sapiens) [compound 122]”, the “Wells positive [%]” value is on record as “++ (20%-49% = ++)”.

On to “366 (QYLELAHSL; listed as Homo sapiens) [compound 366]”, for which the “Wells positive [%]” value was “++ (20%-49% = ++)”.

Turning to “102 (VYPFENFEF; listed as Homo sapiens) [compound 102]”, the “Wells positive [%]” value is reported as “+++ (50%-69% = +++)”.

As to “393 (KYIEAIQWI; listed as Homo sapiens) [compound 393]”, the wells entry is “++ (20%-49% = ++)”.

Take “400 (KYLEKYYNL; listed as Homo sapiens) [compound 400]”: the wells entry is “++ (20%-49% = ++)”.

In the case of “160 (RYGDGGSSF; listed as Homo sapiens) [compound 160]”, the “Wells positive [%]” value is listed as “+ (<20% = +)”.

For the substance “139 (IFGIFPNQF; listed as Homo sapiens) [compound 139]”, the “Wells positive [%]” value is given as “++ (20%-49% = ++)”.

For the substance “115 (RYLNKSFVL; listed as Homo sapiens) [compound 115]”, the “Wells positive [%]” value was “+ (<20% = +)”.

In the case of “349 (QYSIISNVF; listed as Homo sapiens) [compound 349]”, the “Wells positive [%]” value was “++ (20%-49% = ++)”.

Turning to “103 (NYIPVKNGKQF; listed as Homo sapiens) [compound 103]”, the “Wells positive [%]” value is “+ (<20% = +)”.

With “142 (VYVDDIYVI; listed as Homo sapiens) [compound 142]”, the “Wells positive [%]” value was “++++ (>= 70 % = ++++)”.

As for “350 (KYGNFIDKL; listed as Homo sapiens) [compound 350]”, the “Wells positive [%]” value was “+++ (50%-69% = +++)”.

Take “371 (AYSHLRYVF; listed as Homo sapiens) [compound 371]”: the “Wells positive [%]” value was “++ (20%-49% = ++)”.

For “179 (TYIPVGLGRLL; listed as Homo sapiens) [compound 179]”, the “Wells positive [%]” value is reported as “+++ (50%-69% = +++)”.

“399 (SYIDVLPEF; listed as Homo sapiens) [compound 399]”: the wells result is recorded as “++ (20%-49% = ++)”.

Take “112 (IYNFVESKL; listed as Homo sapiens) [compound 112]”: the “Wells positive [%]” value was “+++ (50%-69% = +++)”.

For “177 (VYFKAGLDVF; listed as Homo sapiens) [compound 177]”, the “Wells positive [%]” value was “+ (<20% = +)”.

“107 (KYFPYLVVI; listed as Homo sapiens) [compound 107]”: the “Wells positive [%]” value is listed as “++ (20%-49% = ++)”.

On to “110 (SYPKIIEEF; listed as Homo sapiens) [compound 110]”, for which the “Wells positive [%]” value is on record as “++ (20%-49% = ++)”.

For the substance “161 (KYPDIVQQF; listed as Homo sapiens) [compound 161]”, the “Wells positive [%]” value was “+ (<20% = +)”.

Regarding “180 (KYLQVVGMF; listed as Homo sapiens) [compound 180]”, the “Wells positive [%]” value is on record as “+ (<20% = +)”.

Take “168 (RYLEAALRL; listed as Homo sapiens) [compound 168]”: the “Wells positive [%]” value is “+++ (50%-69% = +++)”.

In the case of “344 (EYNSDLHQF; listed as Homo sapiens) [compound 344]”, the “Wells positive [%]” value is “+ (<20% = +)”.

“354 (VYNEQIRDLL; listed as Homo sapiens) [compound 354]”: the “Wells positive [%]” value is “+ (<20% = +)”.

The values are drawn from US10568950B1, “Peptides, combination of peptides and scaffolds for use in immunotherapeutic treatment of various cancers” (Immatics Biotechnologies GmbH, priority 2015, dated 2020).
